Experimental findings from PubChem BioAssay AID179 (DTP/NCI, 2004) are described below.

In the assay the test system is CEM cells HIV-1 protection, formazan growth assay. Kind of assay: NCI AIDS Antiviral Assay. The settings on record: for IC50: measured here: growth of uninfected CEM cells. The essentials: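 Soluble formazan readout of cell growth; CEM cells ± HIV-1; 5 drug concs. ≥50% protection → retest; ≥50% again = moderately active; reproducible 100% = confirmed active.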

Structures are written as SMILES. Active and inactive are the calls of the source.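 Rule for the calls: active = compounds giving half or more protection of infected cells from virus-caused growth loss, again on retest; inactive = the rest.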 A value given as a limit tells only on which side of the number the result lay.

In the case of `Cc1ccc(SSC(=S)Nc2ccccc2)cc1`, the result was inactive. On to `CC(C)N1CCCOC(c2ccc([N+](=O)[O-])cc2)O1` (stereo not drawn), for which the EC50 was more than 200 µM and the half-inhibitory concentration (IC50) came out at 112 µM. `Cc1n[nH]c(=O)n1Nc1ccccc1`: the EC50 was more than 200 µM and the IC50 was more than 200 µM.

`O=C1c2cccc3cc([N+](=O)[O-])cc(c23)C(=O)N1CCc1ccccn1`: the EC50 is more than 200 µM and the IC50 was found to be 4.37 µM. Take `O=C1CCCCCCCCCCC1CN1CCCCC1` (stereo not drawn): the result was inactive. Regarding `C/C(=C\O[Si](C)(C)C)c1ccccc1`, the EC50 was more than 200 µM and the IC50 was more than 200 µM.

Turning to `CC(=O)C(SSC(C(C)=O)C(C)=O)C(C)=O`, the EC50 was more than 200 µM and the IC50 is 8.51 µM. As for `C1CSCCSCCCSCCSCCCSCCSCCCSCCSC1`, the EC50 was more than 7.08 µM and the half-inhibitory concentration (IC50) was more than 7.08 µM. With `CC1CCC(C(C)C)C(OC(=O)NCn2cc(-c3ccccc3)nn2)C1` (stereo not drawn), the EC50 is more than 200 µM and the IC50 was more than 200 µM.

For the compound `O=C(NCCN1CCOCC1)c1ccc(I)cc1`, the EC50 is more than 200 µM and the concentration for half-maximal inhibition (IC50) is more than 200 µM.

In the case of `Cc1cccc(-n2c(C)nc3ccc(NC4OC(CO)C(O)C(O)C4O)cc3c2=O)c1` (stereo not drawn), the EC50 is more than 200 µM and the IC50 is more than 200 µM. In the case of `O=C1NC(=O)c2ncccc21`, the EC50 was more than 200 µM and the half-maximal inhibitory concentration (IC50) was more than 200 µM.

Take `COc1cccc(/C=C/c2nccc3ccccc23)c1OC`: the EC50 is more than 200 µM and the IC50 was found to be 12.9 µM. The corresponding values for `O=C(NC(=Nc1ccccc1)SCCSC(=Nc1ccccc1)NC(=O)c1ccccc1)c1ccccc1` are more than 18.6 µM and more than 18.6 µM.

Take `COc1cc2c(c([N+](=O)[O-])c1)NCCS2`: the EC50 is more than 200 µM and the IC50 is more than 200 µM. `Cc1cc(C)nc(NS(=O)(=O)c2ccc(NC(=O)c3ccccc3SC(=O)CCCC[n+]3ccccc3)cc2)n1`: the concentration giving a half-maximal response (EC50) is 17 µM and the IC50 is 51.3 µM. Regarding `C/C(=N/NC(=S)Nc1ccc([N+](=O)[O-])cc1)c1cccc(/C(C)=N\NC(=S)Nc2ccc([N+](=O)[O-])cc2)n1`, the EC50 was more than 200 µM and the IC50 worked out at 0.479 µM. For `C(=C(c1ccc(OC2CCCCO2)cc1)c1ccc(OC2CCCCO2)cc1)c1ccccc1` (stereo not drawn), the EC50 was more than 2 µM and the IC50 worked out at 1.12 µM.

As for `CCCCCCCC(=O)O[C@H]1[C@H]2[C@@H](CC1(C)C)C(=O)[C@]13O[C@H]1C(=O)[C@]1(CO1)[C@]23C`, the EC50 is more than 162 µM and the IC50 was determined as 0.55 µM. Turning to `CCOC(=O)c1[nH]c(COC(C)=O)c(CCCOC(C)=O)c1CCCOC(C)=O`, the result was inactive. `CCCNC(=O)c1nc(SC)sc1NC(=O)c1ccc([N+](=O)[O-])cc1`: the EC50 is more than 200 µM and the half-maximal inhibitory concentration (IC50) came out at 191 µM. On to `O=C1OCCC[C@H]2O[C@@H](COCc3ccccc3)C[C@@H]12`, for which the EC50 is more than 200 µM and the IC50 is more than 200 µM. `N#C/C(=C/n1c(=S)sc2ccccc21)c1nc2ccccc2s1`: the EC50 was more than 200 µM and the concentration for half-maximal inhibition (IC50) was determined as 102 µM. On to `COc1cc(/C=C/C(=N\NC(N)=S)c2sc(NNC(C)=O)nc2C)ccc1O`, for which the EC50 is more than 77.6 µM and the 50% inhibitory concentration (IC50) is 69.2 µM. With `O=C(O)c1nn(-c2ccccn2)c(O)c1N=Nc1ccc(/C=C\c2ccc(N=Nc3c(C(=O)O)nn(-c4ccccn4)c3O)cc2S(=O)(=O)O)c(S(=O)(=O)O)c1`, the EC50 was more than 1.48 µM and the IC50 was more than 1.48 µM.

Regarding `Cc1oc2c(c1C)S(=O)(=O)C(C#N)C(c1ccccc1)N2` (stereo not drawn), the EC50 was more than 200 µM and the IC50 was found to be 126 µM. The corresponding values for `O=C(/N=N/C(=O)Oc1ccccc1)Oc1ccccc1` are more than 200 µM and 33.1 µM. On the same counts, the results for `CS(=O)(=O)CC1=Nc2nnc(CCCCCCCc3nnc4n3C(=O)C(CS(C)(=O)=O)=N4)n2C1=O` are more than 10 µM and more than 10 µM. As to `Cc1cccc(N=C2NC(=O)C(CC(=O)Nc3ccc(Cl)cc3C)S2)c1` (stereo not drawn), the EC50 is more than 18.6 µM and the 50% inhibitory concentration (IC50) was more than 18.6 µM. As to `C/C(=N\O)c1ccc2c3c(ccc([N+](=O)[O-])c13)CC2`, the EC50 was more than 200 µM and the IC50 was 46.8 µM. `c1ccc2c(c1)[nH]c1c2nc2ccccn21`: the EC50 is more than 1020 µM, the outcome was inactive and the IC50 is more than 1020 µM. Take `Cc1cnc([C@H]2CCC3[C@@H]4CC=C5C[C@@H](O)CC[C@]5(C)C4CC[C@@]32C)s1` (stereo partly drawn): the EC50 was more than 67.6 µM and the IC50 is more than 67.6 µM. In the case of `O=C1OC(=O)C23CSCC12C1C=CC3O1` (stereo not drawn), the EC50 is more than 417 µM and the half-maximal inhibitory concentration (IC50) was more than 417 µM. With `C#CC1NC(=O)C1N(CC)CC` (stereo not drawn), the outcome was inactive. With `O=c1oc2cc(O)ccc2c(O)c1C(c1ccc(/C=C/c2ccccc2)cc1)c1c(O)c2ccc(O)cc2oc1=O`, the EC50 is more than 200 µM and the half-maximal inhibitory concentration (IC50) came to 74.1 µM. As for `CCOC(=O)C1=C(C)N(C2OC(COC(=O)c3ccccc3)C(OC(=O)c3ccccc3)C2OC(=O)c2ccccc2)C(=S)NC1c1ccccc1` (stereo not drawn), the EC50 was more than 50.1 µM and the IC50 was more than 50.1 µM. As to `CCOC(=O)C(=O)Nc1ccccc1C(F)(F)F`, the EC50 was more than 363 µM and the concentration for half-maximal inhibition (IC50) was more than 363 µM. As for `O=c1ccn2c(n1)OC1C(O)C(CO)OC12` (stereo not drawn), the EC50 is more than 200 µM and the IC50 is more than 200 µM. With `O=C1CCC(=O)N2CCCCN12`, the EC50 was more than 407 µM and the half-maximal inhibitory concentration (IC50) is more than 407 µM.

In the case of `NCC(=O)NC1OC(COP(=O)(O)O)C(O)C1O` (stereo not drawn), the EC50 is more than 200 µM and the half-inhibitory concentration (IC50) is more than 200 µM. Take `O=C(O)C1=NN(c2ccc(S(=O)(=O)O)cc2)C(=O)C1N=Nc1ccc(S(=O)(=O)O)cc1` (stereo not drawn): the outcome was inactive. For the compound `COc1cc(COC(=O)N(C)[C@@H](Cc2ccccc2)C(=O)O)c([N+](=O)[O-])cc1OC`, the EC50 is more than 603 µM and the IC50 came to 302 µM. The corresponding values for `CC1C=CN(N(C)C)C2=C1C(=O)c1cnccc1C2=O` (stereo not drawn) are more than 20 µM and 1.23 µM. The corresponding values for `CCNc1nc(NC(C)C)nc(-c2ccncc2)n1` are more than 200 µM and 138 µM. On to `COc1cc(/C=C2/SC(c3ccccc3)N(c3ccccc3)C2=O)cc(OC)c1OC` (stereo not drawn), for which the EC50 was more than 20 µM and the 50% inhibitory concentration (IC50) came to 4.47 µM. For `Cc1cc2cccc(Cl)c2nc1C(=O)c1ccccc1`, the EC50 was more than 6.61 µM and the IC50 is more than 6.61 µM.

As to `CN1CCN(c2c(Cl)cc(Cl)c3[nH]c4ccccc4c(=O)c23)CC1`, the EC50 was more than 2 µM and the IC50 was 0.977 µM. For the compound `O=S(=O)(NCCSSCCNS(=O)(=O)c1ccc(F)cc1)c1ccc(F)cc1`, the EC50 was more than 200 µM and the 50% inhibitory concentration (IC50) amounted to 8.91 µM.

For `COCO[C@@H]1C(=O)N(c2ccccc2)[C@@H]1c1ccccc1`, the EC50 is more than 178 µM and the IC50 is more than 178 µM. With `CCCCC(CC)COC(=O)CC(C(=O)OCC(CC)CCCC)S(=O)(=O)O` (stereo not drawn) (tested in a mixture with another compound), the EC50 was more than 200 µM and the IC50 is more than 200 µM.

As for `O=C(O)C(Cc1ccccc1)NCc1c(O)ccc2c(-c3ccccc3)cc(=O)oc12` (stereo not drawn), the EC50 is more than 200 µM and the half-maximal inhibitory concentration (IC50) was more than 200 µM. For the compound `O=C(O)CCC(NC(=O)c1ccc(OCc2nc3cc(C(F)(F)F)ccc3nc2-c2ccccc2)cc1)C(=O)O` (stereo not drawn), the EC50 was more than 200 µM and the half-inhibitory concentration (IC50) is more than 200 µM.

For the compound `Cc1ccccc1C(O)(c1nccn1C)c1nccn1C`, the EC50 was more than 200 µM and the concentration for half-maximal inhibition (IC50) was more than 200 µM. Regarding `O=Nc1c(-c2ccccc2)nc2cc(-c3ccccc3)[nH]n12`, the EC50 is more than 18.2 µM and the concentration for half-maximal inhibition (IC50) was more than 18.2 µM. `CCOC(=O)NC(=O)c1cn(CCCCCCCCCCC(=O)N2CCN(CCn3cc(C(=O)NC(=O)OCC)c(=O)[nH]c3=O)CC2)c(=O)[nH]c1=O`: the outcome was inactive. Regarding `CC1(C)CC23C(=O)N(c4ccccc4)C(=Nc4ccccc4)NC2=CC(C#N)=C(C#N)C3O1` (stereo not drawn), the EC50 is more than 12 µM and the IC50 is more than 12 µM. On to `Nc1cc(S(=O)(=O)O)c(O)c2c1C(=O)c1c(O)c(S(=O)(=O)O)cc(N)c1C2=O`, for which the result was inactive.

Take `O=C(CSc1c2ccccc2nc2ccccc12)Nc1ccccc1-c1ccccc1NC(=O)CSc1c2ccccc2nc2ccccc12`: the EC50 is more than 1.91 µM and the IC50 was more than 1.91 µM. For the compound `O=C1CN(CCCN2CCOCC2)CC(=O)N2CCCCN12`, the EC50 was more than 200 µM and the IC50 was more than 200 µM. Regarding `COc1ccc(/C(CC2OC(=O)c3ccccc32)=N\NC(=O)C[N+](C)(C)C)cc1` (stereo not drawn), the EC50 is more than 77.6 µM and the half-inhibitory concentration (IC50) was determined as 24 µM. Turning to `CCOP(=O)(CCP(=O)(OCC)OCC)OCC.C[CH2][Sn]([Cl])([Cl])[CH2]C`, the outcome was inactive. `CCCC[As](CCCC)SC1CCC2(C)C(=CCC3C4CCC(=O)C4(C)CCC32)C1` (stereo not drawn): the EC50 is more than 46.8 µM and the IC50 came out at 15.8 µM. In the case of `Cc1cc(S(=O)(=O)n2ccnc2Oc2cccc(Cl)c2)c(SSc2cc(Cl)c(C)cc2S(=O)(=O)n2ccnc2Oc2cccc(Cl)c2)cc1Cl`, the EC50 is 8.13 µM and the IC50 worked out at 13.8 µM. Consider `CSc1s[s+]c(SC)c1-c1ccccc1`, for which the EC50 was 14.8 µM and the IC50 amounted to 16.2 µM.

For `CC(=O)Nc1ccc(/C=N\N2C(=O)c3ccccc3C2=O)cc1`, the EC50 was more than 61.7 µM and the IC50 was more than 61.7 µM.

As to `CSC(SC)=C1CC(=O)Nc2ccccc2C1=O`, the EC50 was more than 200 µM and the IC50 amounted to 58.9 µM. On to `Clc1ccc(OCc2nnc(CCCCCCCCc3nnc(COc4ccc(Cl)cc4Cl)o3)o2)c(Cl)c1`, for which the EC50 was more than 200 µM and the IC50 was 129 µM. Turning to `CCOC(=O)c1cc(-c2ccc(OC)c(OC)c2)cn1C`, the EC50 is more than 200 µM and the half-maximal inhibitory concentration (IC50) turned out to be 39.8 µM. Turning to `CCOP(=O)(OCC)Oc1c(OC)c2[nH]c(C(=O)OC)cc2c2c(C(=O)O)c[nH]c12`, the EC50 was more than 200 µM and the half-inhibitory concentration (IC50) was more than 200 µM. On to `CC12CCCC3(CC(=O)C(C)(C)C3C(=O)C1)C2` (stereo not drawn), for which the EC50 is more than 200 µM and the IC50 is more than 200 µM.

A word on the EC50: it is the midpoint of the concentration-response curve. The IC50 is the midpoint of a concentration-inhibition curve. Higher therefore signals a need for much substance.
